# Measurements taken from patent US10259843B2, “Cyclic tetrapeptide stereoisomers” (University of Kansas, priority 2014, dated 2019).
# “And” between values parts separate entries of the source, which are not always exact repeats. Equal values may be shown once. “Also recorded” adds a separate entry of the source. Where a name gives a salt, the structure may show the parent alone. Read-outs that look alike come from different tables or passages of the source. Non-standard residues stand in square brackets, D forms with d. Residues, ends and D or L forms follow the SMILES beside them.
# Experiments:
# [1] = mouse 55° C. warm water tail withdrawal assay, antinociception; format: in vivo; details: for ED50 (95% CI) i.c.v. / ED50 (95% CI) p.o.: antinociception; for Receptors involved: opioid receptors contributing to antinociception
# Protocol: (§1) The peptides of Table 1 shown below in Tables 3 and 4 were evaluated in radioligand binding assays for mu, kappa and delta opioid receptor affinities in vitro, and in the mouse 55° C. warm water tail withdrawal assay in vivo for antinociception and opioid antagonist activity.
# [2] = system: opioid receptors (KOR, MOR, DOR); test: mouse 55° C. warm water tail withdrawal assay, opioid antagonist activity; format: in vivo; details: for Antagonism (opioid receptor antagonised in vivo): dose not given
# Protocol: as §1
# [3] = molecular target: kappa opioid receptor (KOR) (Homo sapiens, UniProt P41145); test: radioligand binding assay, kappa opioid receptor affinity; details: for Selectivity KOR/MOR/DOR: ratio of Ki values
# kappa opioid receptor (KOR), sequence (P41145 whole entry): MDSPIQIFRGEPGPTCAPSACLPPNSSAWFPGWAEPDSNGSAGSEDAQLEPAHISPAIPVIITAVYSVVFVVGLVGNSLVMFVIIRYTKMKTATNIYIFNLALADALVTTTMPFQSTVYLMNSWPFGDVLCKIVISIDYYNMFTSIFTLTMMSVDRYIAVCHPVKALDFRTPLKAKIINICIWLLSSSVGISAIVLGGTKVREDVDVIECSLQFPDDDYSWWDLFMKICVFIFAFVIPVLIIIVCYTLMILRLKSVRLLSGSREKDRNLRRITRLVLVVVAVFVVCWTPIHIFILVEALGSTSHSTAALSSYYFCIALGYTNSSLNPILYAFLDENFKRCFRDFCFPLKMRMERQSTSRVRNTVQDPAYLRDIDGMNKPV
# Protocol: as §1
# [4] = rotorod test for sedation and motor coordination; format: in vivo; parameters: key: ✓ indicates tested (if no other comment then no significant effect)
# locomotion (CLAMS) = format: in vivo; parameters: key: ✓ indicates tested (if no other comment then no significant effect)
# respiratory depression = format: in vivo; parameters: key: ✓ indicates tested (if no other comment then no significant effect)
# mu opioid receptor (MOR) = mu opioid receptor (MOR) (Homo sapiens, UniProt P35372); test: radioligand binding assay, mu opioid receptor affinity
# mu opioid receptor (MOR), sequence (P35372 whole entry): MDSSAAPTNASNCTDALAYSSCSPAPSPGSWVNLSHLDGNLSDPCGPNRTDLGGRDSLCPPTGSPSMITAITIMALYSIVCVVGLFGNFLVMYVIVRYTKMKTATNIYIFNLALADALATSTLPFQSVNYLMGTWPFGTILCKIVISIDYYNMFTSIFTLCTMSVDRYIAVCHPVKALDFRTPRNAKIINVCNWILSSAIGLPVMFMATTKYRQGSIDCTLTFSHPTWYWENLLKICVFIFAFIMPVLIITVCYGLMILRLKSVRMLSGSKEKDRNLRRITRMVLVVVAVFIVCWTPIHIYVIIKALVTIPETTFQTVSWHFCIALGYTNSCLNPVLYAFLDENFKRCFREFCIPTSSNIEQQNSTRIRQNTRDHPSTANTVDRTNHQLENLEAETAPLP
# Protocol: as §1
# [5] = molecular target: delta opioid receptor (DOR) (Homo sapiens, UniProt P41143); test: radioligand binding assay, delta opioid receptor affinity; details: for Ki: n in parentheses, read-out: Ki (nM ± SEM) DOR
# delta opioid receptor (DOR), sequence (P41143 whole entry): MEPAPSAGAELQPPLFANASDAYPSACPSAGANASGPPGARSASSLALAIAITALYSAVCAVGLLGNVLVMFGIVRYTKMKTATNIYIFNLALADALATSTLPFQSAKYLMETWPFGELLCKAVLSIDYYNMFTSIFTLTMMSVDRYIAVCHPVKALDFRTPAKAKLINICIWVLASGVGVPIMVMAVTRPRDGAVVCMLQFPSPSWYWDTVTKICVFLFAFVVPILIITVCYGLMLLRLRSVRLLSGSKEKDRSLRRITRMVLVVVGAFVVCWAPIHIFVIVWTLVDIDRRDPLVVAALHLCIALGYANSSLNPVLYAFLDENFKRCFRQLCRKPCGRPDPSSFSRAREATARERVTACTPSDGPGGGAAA
# Protocol: as §1
# acute tolerance model = details: in vivo
# [6] = conditioned place response assay; details: oral administration of the peptides
# [7] = n in parentheses, read-out: Ki (nM ± SEM) KOR
# [8] = n in parentheses, read-out: Ki (nM ± SEM) MOR
compound,measurement,setting,value
"O=C1N[C@H](Cc2ccccc2)C(=O)N2CCC[C@H]2C(=O)N[C@H](Cc2ccccc2)C(=O)N[C@H]1Cc1c[nH]c2ccccc12 [JVA 3638, cyclo[D-Phe- Pro-D-Phe-Trp]] (cyclo(P[dF]W[dF]))",ED50 (95% CI) i.c.v.,[1]; i.c.v.,8.93 (1.96-19.5) nmol
"O=C1N[C@H](Cc2c[nH]c3ccccc23)C(=O)N[C@H](Cc2ccccc2)C(=O)N2CCC[C@@H]2C(=O)N[C@H]1Cc1ccccc1 [JVA 3609, cyclo[D-Phe-D- Pro-Phe-D-Trp]] (cyclo(F[dW][dF][dP]))",ED50 (95% CI) i.c.v.,[1]; i.c.v.,2.39 nmol
same,ED50 (95% CI) p.o.,[1]; p.o.,≥10 mg/kg
same,Receptors involved,[1],"mu opioid receptors (MOR) are not involved; also recorded: DOR, KOR"
same,antinociception response p.o. at 30 mg/kg,[1]; p.o.,(~60% at
same,"Antagonism (dose, nmol)",[2]; 30 nmol,None (30)
same,Ki,[3]; [7],> 10000 nM
same,"Rotorod (10 mg/kg, p.o.)",[4],✓ (sig
same,"Locomotion (CLAMS, 10 mg/kg, p.o.)",locomotion (CLAMS),Sig. hypo-
same,Respiratory depression 10 mg/kg p.o.,respiratory depression,evidence of respiratory depression; also recorded: Resp
same,Ki,mu opioid receptor (MOR); [8],> 10000 nM
same,Ki,[5],> 10000 nM
"O=C1N[C@@H](Cc2ccccc2)C(=O)N2CCC[C@@H]2C(=O)N[C@@H](Cc2ccccc2)C(=O)N[C@H]1Cc1c[nH]c2ccccc12 [JVA 2801, cyclo[Phe-D-Pro-Phe-Trp], reference compound] (cyclo(FWF[dP]))",ED50 (95% CI) i.c.v.,[1]; i.c.v.,1.74 nmol
same,ED50 (95% CI) p.o.,[1]; p.o.,3.49 mg/kg
same,Receptors involved,[1],"KOR, MOR"
same,Acute Tolerance ED50 shift,acute tolerance model,1.73 fold
same,Antagonism (opioid receptor antagonised in vivo),[2],KOR
same,Antagonism (opioid receptor antagonised in vivo),"[2]; listed as CJ-15,208",mixed opioid agonist/kappa opioid receptor (KOR) antagonist activity; also recorded: weak antagonist activities at kappa opioid receptors (KOR)
same,Ki,[3]; [7],35.4 nM and 16.9 nM
same,Selectivity KOR/MOR/DOR,[3],1/18/49 and 1/12/102
same,Rotorod,[4]; 10 and 60 mg/kg,✓ (10 and 60
same,Ki,[5],1720 ± 350 nM
"O=C1N[C@H](Cc2c[nH]c3ccccc23)C(=O)N[C@@H](Cc2ccccc2)C(=O)N2CCC[C@H]2C(=O)N[C@H]1Cc1ccccc1 [JVA 3639, cyclo[Phe-Pro- Phe-D-Trp]] (cyclo(FPF[dW]))",ED50 (95% CI) i.c.v.,[1]; i.c.v.,49.7 (34.8-69.8) nmol
"O=C1N[C@@H](Cc2ccccc2)C(=O)N2CCC[C@H]2C(=O)N[C@@H](Cc2ccccc2)C(=O)N[C@H]1Cc1c[nH]c2ccccc12 [JVA 3612, cyclo[Phe-Pro- Phe-Trp]] (cyclo(FPFW))",ED50 (95% CI) i.c.v.,[1]; i.c.v.,3.52 (2.01-6.42) nmol
same,ED50 (95% CI) p.o.,[1]; p.o.,4.28 (3.56-5.27) mg/kg
same,Receptors involved,[1],"KOR, MOR and DOR"
"O=C1N[C@@H](Cc2ccccc2)C(=O)N2CCC[C@@H]2C(=O)N[C@H](Cc2ccccc2)C(=O)N[C@H]1Cc1c[nH]c2ccccc12 [JVA 3606, cyclo[Phe-D-Pro-D-Phe-Trp]] (cyclo(F[dP][dF]W))",ED50 (95% CI) i.c.v.,[1]; i.c.v.,Partial agonist
same,ED50 (95% CI) p.o.,[1]; p.o.,> 30 mg/kg
same,maximum antinociception i.c.v.,"[1]; i.c.v., max",(~60% max)
same,Receptors involved,[1],"KOR, MOR"
same,antinociception response p.o. at 30 mg/kg,[1]; p.o.,~45%
same,Acute Tolerance ED50 shift,acute tolerance model,Substantial
same,"Antagonism (dose, nmol)",[2]; 100 nmol,None (100)
same,Ki,[3]; [7],362 ± 51 nM
same,Ki,[3]; read-out: Ki KOR,< 1000 nM
same,"Rotorod (10 mg/kg, p.o.)",[4],✓
same,"Locomotion (CLAMS, 10 mg/kg, p.o.)",locomotion (CLAMS),Sig. hypo-
same,Respiratory depression 10 mg/kg p.o.,respiratory depression,✓
same,Ki,mu opioid receptor (MOR); [8],3920 ± 200 nM
same,Ki,mu opioid receptor (MOR); read-out: Ki MOR,> 1000 nM
same,affinity for DOR,[5],negligible affinity
same,Ki,[5],> 10000 nM
"CN1CC[C@]23c4c5ccc(O)c4O[C@H]2[C@@H](O)C=C[C@H]3[C@H]1C5 [Morphine sulfate, morphine, reference compound]",conditioned place preference (drug seeking behavior) or conditioned place aversion,[6],significant conditioned place preference
"O=C1N[C@H](Cc2c[nH]c3ccccc23)C(=O)N[C@@H](Cc2ccccc2)C(=O)N2CCC[C@@H]2C(=O)N[C@H]1Cc1ccccc1 [JVA 2802, cyclo[Phe-D-Pro-Phe-D-Trp], reference compound] (cyclo(F[dP]F[dW]))",antinociception i.c.v. at 30 nmol,"[1]; i.c.v., 30 nmol",~40% @
same,Receptors involved,[1],KOR
same,antinociception p.o. at 60 mg/kg,"[1]; p.o., 60 mg/kg",~25% @
same,Antagonism (opioid receptor antagonised in vivo),[2],KOR
same,affinity for KOR,[3],"retains KOR affinity comparable to the parent CJ-15,208"
same,Selectivity KOR/MOR/DOR,[3],1/37/599
same,Locomotion (CLAMS),locomotion (CLAMS); 60 mg/kg,✓
same,Ki,mu opioid receptor (MOR); [8],259 ± 29 nM
same,Ki,[5],4190 ± 860 nM
